Experimental data published in PubChem BioAssay AID1918995 (Molecular Pharmacology Branch, DTP, NCI, 2023).

Tested on: 324938-238-R-J1-PDC complex spheroid growth, % test/control
Experiment: Anticancer human tumor 324938-238-R-J1-PDC patient-derived bladder carcinoma cell line growth inhibition [AhR]
Conditions: for IC50: curve of first compound; for viability, T/C: stronger effect = lower value
In short: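 Agents were dosed in half-log steps down from roughly clinical Cmax, or from 10 microM where Cmax was unknown, alone and with AhR antagonists. Read-out: percent test/control growth of tumor spheroids containing HUVEC and MSC stromal cells.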

[1] = second compound 0.1 µM, first compound 0.00949 µM
[2] = second compound 0.1 µM, first compound 0.03 µM
[3] = second compound 0.1 µM, first compound 0.0949 µM
[4] = second compound 0.1 µM, first compound 0.3 µM
[5] = second compound 0.316 µM, first compound 0.00949 µM
[6] = second compound 0.316 µM, first compound 0.03 µM
[7] = second compound 0.316 µM, first compound 0.0949 µM
[8] = second compound 0.316 µM, first compound 0.3 µM
[9] = second compound 1 µM, first compound 0.00949 µM
[10] = second compound 1 µM, first compound 0.03 µM
[11] = second compound 1 µM, first compound 0.0949 µM
[12] = second compound 1 µM, first compound 0.3 µM
[13] = second compound 3.16 µM, first compound 0.00949 µM
[14] = second compound 3.16 µM, first compound 0.03 µM
[15] = second compound 3.16 µM, first compound 0.0949 µM
[16] = second compound 3.16 µM, first compound 0.3 µM
[17] = second compound 10 µM, first compound 0.00949 µM
[18] = second compound 10 µM, first compound 0.03 µM
[19] = second compound 10 µM, first compound 0.0949 µM
[20] = second compound 10 µM, first compound 0.3 µM
[21] = second compound 0.1 µM, first compound 0.0316 µM
[22] = second compound 0.1 µM, first compound 0.1 µM
[23] = second compound 0.1 µM, first compound 0.316 µM
[24] = second compound 0.1 µM, first compound 1 µM
[25] = second compound 0.1 µM, first compound 3.16 µM
[26] = second compound 0.1 µM, first compound 10 µM
[27] = second compound 0.316 µM, first compound 0.0316 µM
[28] = second compound 0.316 µM, first compound 0.1 µM
[29] = second compound 0.316 µM, first compound 0.316 µM
[30] = second compound 0.316 µM, first compound 1 µM
[31] = second compound 0.316 µM, first compound 3.16 µM
[32] = second compound 0.316 µM, first compound 10 µM
[33] = second compound 1 µM, first compound 0.0316 µM
[34] = second compound 1 µM, first compound 0.1 µM
[35] = second compound 1 µM, first compound 0.316 µM
[36] = second compound 1 µM, first compound 1 µM
[37] = second compound 1 µM, first compound 3.16 µM
[38] = second compound 1 µM, first compound 10 µM
[39] = second compound 3.16 µM, first compound 0.0316 µM
[40] = second compound 3.16 µM, first compound 0.1 µM
[41] = second compound 3.16 µM, first compound 0.316 µM
[42] = second compound 3.16 µM, first compound 1 µM
[43] = second compound 3.16 µM, first compound 3.16 µM
[44] = second compound 3.16 µM, first compound 10 µM
[45] = second compound 10 µM, first compound 0.0316 µM
[46] = second compound 10 µM, first compound 0.1 µM
[47] = second compound 10 µM, first compound 0.316 µM
[48] = second compound 10 µM, first compound 1 µM
[49] = second compound 10 µM, first compound 3.16 µM
[50] = second compound 10 µM, first compound 10 µM
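Note: spheroids exposed to agents for seven days before viability read.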

CCN(c1cc(-c2ccc(CN3CCOCC3)cc2)cc(C(=O)NCc2c(C)cc(C)[nH]c2=O)c1C)C1CCOCC1 + Cc1cncc(-c2nc(NCCc3c[nH]c4ccccc34)c3ncn(C(C)C)c3n2)c1
IC50 (second compound 0.1 µM): > 3 µM
IC50 (second compound 0.316 µM): > 3 µM
IC50 (second compound 1 µM): > 3 µM
IC50 (second compound 3.16 µM): > 3 µM
IC50 (second compound 10 µM): < 0.00949 µM
viability, T/C [1]: 106%
viability, T/C [2]: 135%
viability, T/C [3]: 123%
viability, T/C [4]: 104%
viability, T/C (second compound 0.1 µM, first compound 0.949 µM): 106%
viability, T/C (second compound 0.1 µM, first compound 3 µM): 156%
viability, T/C [5]: 94.5%
viability, T/C [6]: 89.3%
viability, T/C [7]: 112%
viability, T/C [8]: 105%
viability, T/C (second compound 0.316 µM, first compound 0.949 µM): 109%
viability, T/C (second compound 0.316 µM, first compound 3 µM): 112%
viability, T/C [9]: 83.9%
viability, T/C [10]: 118%
viability, T/C [11]: 117%
viability, T/C [12]: 109%
viability, T/C (second compound 1 µM, first compound 0.949 µM): 94%
viability, T/C (second compound 1 µM, first compound 3 µM): 108%
viability, T/C [13]: 102%
viability, T/C [14]: 102%
viability, T/C [15]: 124%
viability, T/C [16]: 86.3%
viability, T/C (second compound 3.16 µM, first compound 0.949 µM): 110%
viability, T/C (second compound 3.16 µM, first compound 3 µM): 93.8%
viability, T/C [17]: 12.1%
viability, T/C [18]: 15.5%
viability, T/C [19]: 15.5%
viability, T/C [20]: 17.9%
viability, T/C (second compound 10 µM, first compound 0.949 µM): 8.72%
viability, T/C (second compound 10 µM, first compound 3 µM): 7.72%

Nc1ncn(C2CC(O)C(CO)S2)c(=O)n1 (stereo not given) + CC(CO)NC(=O)c1cc(-c2ccc(Cl)cc2)nn(-c2cnn(C)c2)c1=O
IC50 (second compound 0.1 µM): 0.284 µM
IC50 (second compound 0.316 µM): 0.254 µM
IC50 (second compound 1 µM): > 0.3 µM
IC50 (second compound 3.16 µM): 0.139 µM
IC50 (second compound 10 µM): > 0.3 µM
viability, T/C (second compound 0.1 µM, first compound 0.000949 µM): 99.4%
viability, T/C (second compound 0.1 µM, first compound 0.003 µM): 93.2%
viability, T/C [1]: 90.7%
viability, T/C [2]: 84%
viability, T/C [3]: 69.4%
viability, T/C [4]: 49%
viability, T/C (second compound 0.316 µM, first compound 0.000949 µM): 93.9%
viability, T/C (second compound 0.316 µM, first compound 0.003 µM): 88.4%
viability, T/C [5]: 78.1%
viability, T/C [6]: 78.7%
viability, T/C [7]: 64.2%
viability, T/C [8]: 46.5%
viability, T/C (second compound 1 µM, first compound 0.000949 µM): 91.9%
viability, T/C (second compound 1 µM, first compound 0.003 µM): 89.6%
viability, T/C [9]: 90.5%
viability, T/C [10]: 69.4%
viability, T/C [11]: 59.1%
viability, T/C [12]: 54.2%
viability, T/C (second compound 3.16 µM, first compound 0.000949 µM): 75.1%
viability, T/C (second compound 3.16 µM, first compound 0.003 µM): 75.4%
viability, T/C [13]: 70.3%
viability, T/C [14]: 58%
viability, T/C [15]: 57%
viability, T/C [16]: 41.6%
viability, T/C (second compound 10 µM, first compound 0.000949 µM): 64.6%
viability, T/C (second compound 10 µM, first compound 0.003 µM): 72.6%
viability, T/C [17]: 57.1%
viability, T/C [18]: 65.2%
viability, T/C [19]: 52.5%
viability, T/C [20]: 53.3%

Nc1ccccc1NC(=O)c1ccc(CNC(=O)OCc2cccnc2)cc1 + Cc1ccccc1N=Nc1ccc(NC(=O)c2ccnn2C)c(C)c1
IC50 (second compound 0.1 µM): 2.23 µM
IC50 (second compound 0.316 µM): 1.74 µM
IC50 (second compound 1 µM): 3.83 µM
IC50 (second compound 3.16 µM): 2.75 µM
IC50 (second compound 10 µM): 3.09 µM
viability, T/C [21]: 104%
viability, T/C [22]: 118%
viability, T/C [23]: 98.1%
viability, T/C [24]: 62.1%
viability, T/C [25]: 48.6%
viability, T/C [26]: 38.3%
viability, T/C [27]: 93.7%
viability, T/C [28]: 110%
viability, T/C [29]: 104%
viability, T/C [30]: 55.5%
viability, T/C [31]: 50.2%
viability, T/C [32]: 37.8%
viability, T/C [33]: 91.8%
viability, T/C [34]: 94.5%
viability, T/C [35]: 85.8%
viability, T/C [36]: 64.6%
viability, T/C [37]: 56%
viability, T/C [38]: 38%
viability, T/C [39]: 82.9%
viability, T/C [40]: 102%
viability, T/C [41]: 79.1%
viability, T/C [42]: 58.4%
viability, T/C [43]: 53.7%
viability, T/C [44]: 43.1%
viability, T/C [45]: 86.8%
viability, T/C [46]: 91.4%
viability, T/C [47]: 77.4%
viability, T/C [48]: 57.7%
viability, T/C [49]: 56.4%
viability, T/C [50]: 40.5%

CC[C@@]1(O)C(=O)OCc2c1cc1n(c2=O)Cc2cc3c(CN(C)C)c(O)ccc3nc2-1 + Cc1cncc(-c2nc(NCCc3c[nH]c4ccccc34)c3ncn(C(C)C)c3n2)c1
IC50 (second compound 0.1 µM): > 0.1 µM
IC50 (second compound 0.316 µM): > 0.1 µM
IC50 (second compound 1 µM): > 0.1 µM
IC50 (second compound 3.16 µM): > 0.1 µM
IC50 (second compound 10 µM): < 0.000316 µM
viability, T/C (second compound 0.1 µM, first compound 0.000316 µM): 108%
viability, T/C (second compound 0.1 µM, first compound 0.001 µM): 151%
viability, T/C (second compound 0.1 µM, first compound 0.00316 µM): 99.7%
viability, T/C (second compound 0.1 µM, first compound 0.01 µM): 117%
viability, T/C [21]: 83.3%
viability, T/C [22]: 102%
viability, T/C (second compound 0.316 µM, first compound 0.000316 µM): 70.6%
viability, T/C (second compound 0.316 µM, first compound 0.001 µM): 91.9%
viability, T/C (second compound 0.316 µM, first compound 0.00316 µM): 124%
viability, T/C (second compound 0.316 µM, first compound 0.01 µM): 93.2%
viability, T/C [27]: 77.8%
viability, T/C [28]: 93.5%
viability, T/C (second compound 1 µM, first compound 0.000316 µM): 116%
viability, T/C (second compound 1 µM, first compound 0.001 µM): 110%
viability, T/C (second compound 1 µM, first compound 0.00316 µM): 114%
viability, T/C (second compound 1 µM, first compound 0.01 µM): 93.4%
viability, T/C [33]: 87.6%
viability, T/C [34]: 96.9%
viability, T/C (second compound 3.16 µM, first compound 0.000316 µM): 97.8%
viability, T/C (second compound 3.16 µM, first compound 0.001 µM): 71.7%
viability, T/C (second compound 3.16 µM, first compound 0.00316 µM): 87.3%
viability, T/C (second compound 3.16 µM, first compound 0.01 µM): 90.9%
viability, T/C [39]: 79%
viability, T/C [40]: 79.4%
viability, T/C (second compound 10 µM, first compound 0.000316 µM): 5.23%
viability, T/C (second compound 10 µM, first compound 0.001 µM): 3.61%
viability, T/C (second compound 10 µM, first compound 0.00316 µM): 4.43%
viability, T/C (second compound 10 µM, first compound 0.01 µM): 3.43%
viability, T/C [45]: 3.79%
viability, T/C [46]: 10.3%

CC1COCCN1c1cc(C2(S(C)(=N)=O)CC2)nc(-c2ccnc3[nH]ccc23)n1 (stereo not given) + Cc1cncc(-c2nc(NCCc3c[nH]c4ccccc34)c3ncn(C(C)C)c3n2)c1
IC50 (second compound 0.1 µM): > 10 µM
IC50 (second compound 0.316 µM): > 10 µM
IC50 (second compound 1 µM): > 10 µM
IC50 (second compound 3.16 µM): > 10 µM
IC50 (second compound 10 µM): < 0.0316 µM
viability, T/C [21]: 112%
viability, T/C [22]: 126%
viability, T/C [23]: 90.9%
viability, T/C [24]: 93.4%
viability, T/C [25]: 93.2%
viability, T/C [26]: 74.2%
viability, T/C [27]: 98.4%
viability, T/C [28]: 127%
viability, T/C [29]: 127%
viability, T/C [30]: 110%
viability, T/C [31]: 70.2%
viability, T/C [32]: 86.7%
viability, T/C [33]: 111%
viability, T/C [34]: 109%
viability, T/C [35]: 108%
viability, T/C [36]: 96.4%
viability, T/C [37]: 87.5%
viability, T/C [38]: 73.5%
viability, T/C [39]: 80.5%
viability, T/C [40]: 92.5%
viability, T/C [41]: 89.8%
viability, T/C [42]: 109%
viability, T/C [43]: 87.1%
viability, T/C [44]: 81.1%
viability, T/C [45]: 8.69%
viability, T/C [46]: 13.3%
viability, T/C [47]: 17.8%
viability, T/C [48]: 14.7%
viability, T/C [49]: 8.67%
viability, T/C [50]: 5.3%
